Reference: patent publication US20060177503A1, “Bambuterol and integrin inhibitor combination and treatment method” (priority 2005, published 2006)

Key:
plasma cholinesterase = plasma cholinesterase (Homo sapiens, UniProt P06276); details: cited from earlier work
Hydrolytic stability = format: physicochemical
From the text: The pharmaceutical dosage forms of the present invention can be prepared according to the examples set out below. […] Furthermore, both compounds are weak bases and the solubility and stability of the compounds are sensitive to counter-ions. In order to assure the stability of the product and to achieve desirable solubility of the dosage form, the choice of excipient is critical. Including an acidulating agent such as fumaric acid, adipic acid, succinic acid, tartaric acid, citric acid, lactic acid, maleic acid, etc., in the formulation, as well as eliminating soluble cations, is important to assure the solubility and stability of the product.

[1] = test system: histamine induced bronchoconstriction; details: cited from earlier work
smooth muscle = details: cited from earlier work
[2] = test system: mild/moderate asthmatics not treated with inhaled corticosteroids; assay: ARES study: R411 monotherapy over a 12 week treatment period; format: in vivo, human
Experimental: The ARES study illustrated in FIG. 3 was designed to evaluate the safety and efficacy of monotherapy R411 over a 12 week treatment period in 480 mild/moderate asthmatics not treated with inhaled corticosteroids. Patients were randomized to one of four cohorts: 50, 200, 600 mg QD R411, or placebo (n=120/group).
The ARES study evaluated the safety and efficacy of monotherapy with R411 over a 12-week treatment period in 479 mild/moderate asthmatics not treated with inhaled corticosteroids. Patients were randomized to one of four cohorts: 50, 200, 600 mg once daily R411, or placebo.

[3] = test system: persistent asthmatics treated with low to medium inhaled corticosteroids; assay: MARS study: R411 added to inhaled corticosteroids, 12 week treatment period; format: in vivo, human; details: added to moderate dose inhaled corticosteroids, subpopulation with not well controlled asthma
From the text: As set out above, a second component in the solid pharmaceutical dosage form comprises a therapeutically effective amount of R411 (N-(2-chloro-6-methylbenzoyl)-4-[(2,6-dichlorobenzoyl)amino]-L-phenylalanine-2-(diethylamino)ethyl ester), or a pharmaceutically acceptable salt thereof. […] The MARS study illustrated in FIG. 2 was designed to evaluate the safety and efficacy of R411 over a 12 week treatment period in 350 persistent asthmatics being treated with a stable dose of low to medium inhaled corticosteroids and inhaled short acting β2-agonist. Patients were randomized to one of five cohorts: 50, 200, 600 mg once daily (QD) or 300 mg twice daily (BID) R411, or placebo (n=70/group). After a 2-week placebo run-in period and subsequent 2-week add-on period (R411 or placebo), morning inhaled corticosteroids were removed. Two weeks later, evening inhaled corticosteroids were removed, and patients remained in the treatment period for an additional 8 weeks. The primary endpoint in the study was the percentage change in FEV1 from baseline, and secondary endpoint included PEFR, asthma exacerbations, (2-agonist use, asthma control questionnaire, asthma symptom scores, nocturnal awakenings, FEF25-75 and rate of asthma treatment failures.

atopic primate = assay: Airway inflammation in the atopic primate, oral R411; format: in vivo; details: oral administration, FIG. 4
key inflammatory cells = assay: Migration of inflammatory cells from the blood into the lungs; details: in vivo
[4] = target: T1, (Homo sapiens, UniProt P13612); assay: In vitro binding to α4 integrin, activated and not activated
T1 sequence (P13612 34-1032): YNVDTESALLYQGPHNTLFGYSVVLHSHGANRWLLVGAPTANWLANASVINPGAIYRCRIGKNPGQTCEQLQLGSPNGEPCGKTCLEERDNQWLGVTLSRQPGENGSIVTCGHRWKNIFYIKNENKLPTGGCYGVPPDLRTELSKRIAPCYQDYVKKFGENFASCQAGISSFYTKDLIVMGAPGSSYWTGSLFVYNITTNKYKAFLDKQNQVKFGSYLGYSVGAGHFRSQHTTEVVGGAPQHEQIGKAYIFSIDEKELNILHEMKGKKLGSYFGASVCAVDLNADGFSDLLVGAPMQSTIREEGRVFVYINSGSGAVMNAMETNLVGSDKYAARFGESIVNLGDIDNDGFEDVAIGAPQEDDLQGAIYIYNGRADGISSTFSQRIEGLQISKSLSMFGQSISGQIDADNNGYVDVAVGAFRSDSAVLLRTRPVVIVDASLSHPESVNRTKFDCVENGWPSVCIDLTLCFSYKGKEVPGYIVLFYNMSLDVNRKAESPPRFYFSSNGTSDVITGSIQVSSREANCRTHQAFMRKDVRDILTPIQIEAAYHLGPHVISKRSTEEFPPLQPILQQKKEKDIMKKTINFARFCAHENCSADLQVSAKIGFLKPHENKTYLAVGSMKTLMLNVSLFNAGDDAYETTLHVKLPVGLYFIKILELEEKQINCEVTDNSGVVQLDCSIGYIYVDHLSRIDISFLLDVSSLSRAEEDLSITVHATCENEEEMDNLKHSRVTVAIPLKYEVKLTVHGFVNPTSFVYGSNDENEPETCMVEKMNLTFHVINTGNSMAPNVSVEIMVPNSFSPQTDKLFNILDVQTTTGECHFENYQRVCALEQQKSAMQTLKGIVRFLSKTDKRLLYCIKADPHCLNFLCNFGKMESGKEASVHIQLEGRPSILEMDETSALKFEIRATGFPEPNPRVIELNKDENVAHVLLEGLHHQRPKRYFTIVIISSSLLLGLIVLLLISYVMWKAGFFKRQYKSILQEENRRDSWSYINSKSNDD

α4/β1 = α4/β1 (Homo sapiens, UniProt P05556+P13612); assay: Inhibition of binding of α4/β1 to VCAM-1
From the text: (§1) R411 inhibits the binding of α4/β1 to vascular cell adhesion molecule (VCAM-1) and α4/β7 to MadCAM-1 by […] is disclosed in U.S. Pat. No. 6,229,011, which disclosure is incorporated by reference herein.

α4/β7 = target: T2, α4/β7 (Homo sapiens, UniProt P13612+P26010); assay: Inhibition of binding of α4/β7 to MadCAM-1
T2 sequence (P13612 34-1032): T1 sequence (P13612 34-1032)
T2 sequence (P26010 20-798): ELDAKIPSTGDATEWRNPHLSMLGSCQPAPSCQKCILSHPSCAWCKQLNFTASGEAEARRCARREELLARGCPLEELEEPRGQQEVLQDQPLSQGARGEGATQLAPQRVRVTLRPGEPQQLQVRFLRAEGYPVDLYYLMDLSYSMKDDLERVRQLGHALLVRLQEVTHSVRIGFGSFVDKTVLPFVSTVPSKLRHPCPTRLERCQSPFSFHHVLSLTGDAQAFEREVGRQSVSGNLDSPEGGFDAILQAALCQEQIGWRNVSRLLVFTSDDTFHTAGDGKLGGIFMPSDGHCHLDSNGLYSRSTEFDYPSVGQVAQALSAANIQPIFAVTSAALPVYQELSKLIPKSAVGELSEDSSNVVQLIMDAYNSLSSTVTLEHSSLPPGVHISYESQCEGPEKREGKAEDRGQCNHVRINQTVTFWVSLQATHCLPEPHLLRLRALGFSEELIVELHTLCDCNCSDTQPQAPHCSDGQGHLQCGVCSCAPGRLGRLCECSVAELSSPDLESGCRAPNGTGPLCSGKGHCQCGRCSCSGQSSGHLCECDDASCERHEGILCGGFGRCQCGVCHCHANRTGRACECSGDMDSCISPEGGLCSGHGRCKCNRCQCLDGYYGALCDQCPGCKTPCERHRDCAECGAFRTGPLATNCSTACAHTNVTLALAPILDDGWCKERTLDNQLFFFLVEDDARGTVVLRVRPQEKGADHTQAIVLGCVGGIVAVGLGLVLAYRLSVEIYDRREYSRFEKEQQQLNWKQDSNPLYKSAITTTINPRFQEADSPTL
From the text: as §1

Sequence of plasma cholinesterase (P06276 29-602): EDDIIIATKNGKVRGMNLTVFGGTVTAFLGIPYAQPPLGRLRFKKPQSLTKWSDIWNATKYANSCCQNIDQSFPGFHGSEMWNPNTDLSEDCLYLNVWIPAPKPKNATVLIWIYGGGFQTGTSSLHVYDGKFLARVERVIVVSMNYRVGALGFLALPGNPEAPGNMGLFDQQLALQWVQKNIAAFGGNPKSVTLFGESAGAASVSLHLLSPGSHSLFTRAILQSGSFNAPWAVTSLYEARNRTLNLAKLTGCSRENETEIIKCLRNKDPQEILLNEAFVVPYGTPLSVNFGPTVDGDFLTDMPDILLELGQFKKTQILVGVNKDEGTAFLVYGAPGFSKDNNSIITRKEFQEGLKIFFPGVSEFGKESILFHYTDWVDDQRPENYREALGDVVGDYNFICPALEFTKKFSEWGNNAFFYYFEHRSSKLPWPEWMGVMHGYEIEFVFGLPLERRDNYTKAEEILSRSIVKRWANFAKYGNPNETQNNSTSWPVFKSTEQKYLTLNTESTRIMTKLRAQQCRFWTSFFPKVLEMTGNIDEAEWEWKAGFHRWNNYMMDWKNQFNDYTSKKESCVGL
Sequence of α4/β1 (P05556 21-798, one chain of several): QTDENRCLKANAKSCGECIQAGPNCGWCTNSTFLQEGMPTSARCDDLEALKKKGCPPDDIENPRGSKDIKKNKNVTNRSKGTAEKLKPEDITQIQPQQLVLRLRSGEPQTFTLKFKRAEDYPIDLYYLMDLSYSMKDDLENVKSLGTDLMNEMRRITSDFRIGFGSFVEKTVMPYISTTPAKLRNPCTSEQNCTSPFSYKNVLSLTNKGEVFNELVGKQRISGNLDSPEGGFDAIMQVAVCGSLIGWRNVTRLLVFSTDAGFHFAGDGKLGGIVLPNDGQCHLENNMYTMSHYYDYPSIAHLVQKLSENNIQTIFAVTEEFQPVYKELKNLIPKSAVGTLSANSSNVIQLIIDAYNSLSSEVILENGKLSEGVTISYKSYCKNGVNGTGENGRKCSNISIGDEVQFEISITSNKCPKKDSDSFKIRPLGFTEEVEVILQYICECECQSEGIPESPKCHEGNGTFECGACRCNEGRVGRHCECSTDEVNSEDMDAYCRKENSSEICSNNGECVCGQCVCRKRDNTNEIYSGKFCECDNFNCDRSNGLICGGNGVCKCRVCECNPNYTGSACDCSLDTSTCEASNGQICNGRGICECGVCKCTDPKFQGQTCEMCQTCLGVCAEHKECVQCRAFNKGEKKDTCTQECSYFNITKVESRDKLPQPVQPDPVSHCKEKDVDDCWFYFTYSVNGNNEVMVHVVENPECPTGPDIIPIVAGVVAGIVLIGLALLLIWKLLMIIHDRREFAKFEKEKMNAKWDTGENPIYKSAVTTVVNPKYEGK

Structure (SMILES): CN(C)C(=O)Oc1cc(OC(=O)N(C)C)cc(C(O)CNC(C)(C)C)c1 (single isomer, unassigned; (-)) [(−)-bambuterol]
- activity as plasma cholinesterase inhibitors (plasma cholinesterase): equally active

Structure (SMILES): CN(C)C(=O)Oc1cc(OC(=O)N(C)C)cc([C@H](O)CNC(C)(C)C)c1 [(+)-bambuterol]
- activity as plasma cholinesterase inhibitors (plasma cholinesterase): equally active

Structure (SMILES): CN(C)C(=O)Oc1cc(OC(=O)N(C)C)cc(C(O)CNC(C)(C)C)c1 (centres unmarked) [Bambuterol, dimethylcarbamic acid 5-[2-[(1,1-dimethylethyl)amino]-1-hydroxyethyl]-1,3-phenylene ester]
- hydrolytic degradation (Hydrolytic stability): susceptible to hydrolytic degradation
- duration of the relaxing activity ([1]; equipotent doses, compared with terbutaline): more prolonged
- protective effect against histamine induced bronchoconstriction ([1]; oral administration): sustained protective effect
- smooth muscle relaxing properties (smooth muscle): did not exert any

Structure (SMILES): CCN(CC)CCOC(=O)[C@H](Cc1ccc(NC(=O)c2c(Cl)cccc2Cl)cc1)NC(=O)c1c(C)cccc1Cl [R411, N-(2-Chloro-6-methylbenzoyl)-4-[(2,6-dichlorobenzoyl)amino]-L-phenylalanine-2-(diethylamino)ethyl ester]
- Asthma Control Questionnaire Scores ([2]; compared to placebo): Improvement
- Asthma Quality-of-Life ([2]; compared to placebo): Improvement
- decrease in daytime asthma symptom score ([2]; monotherapy, 12 weeks): Statistically significant improvements
- decrease in nocturnal symptom score ([2]; monotherapy, 12 weeks): Statistically significant improvements
- reducing rescue albuterol use ([2]; monotherapy, 12 weeks): Statistically significant improvements
- small airway flow rates as measured by FEF25-75 ([2]; monotherapy, FIG. 3): significant effect
- large airway flow rates as measured by FEV1 ([3]; FIG. 1): additive effect
- small airway flow rates measured by FEF25-75 ([3]; FIG. 2): additive effect
- airway inflammation (atopic primate): attenuates airway inflammation
- migration of key inflammatory cells from the blood into the lungs (key inflammatory cells): block the migration
- binding affinity ([4]; activated α4 ligand): high affinity
- dissociation ([4]; activated α4 ligand): slow dissociation
- dissociation ([4]; receptor not activated): more rapid
- in vitro binding affinity ([4]; receptor not activated): lower
- binding of α4/β1 to VCAM-1 (α4/β1): inhibits
- effectiveness against α4/β1 integrin (α4/β1): effective
- binding of α4/β7 to MadCAM-1 (α4/β7): inhibits
- effectiveness against α4/β7 integrin (α4/β7): effective
- hydrolytic degradation (Hydrolytic stability): susceptible to hydrolytic degradation

Structure (SMILES): CN(C)C(=O)Oc1cc(O)cc(C(O)CNC(C)(C)C)c1 (centres unmarked) [monocarbamate ester]
- smooth muscle relaxing properties (smooth muscle): did not exert any
